Here are results for three compounds from PMC9822358, “New Structures, Spectrometric Quantification, and Inhibitory Properties of Cardenolides from Asclepias curassavica Seeds” (Molecules, 2022).

For orientation: IC50 means the point on the concentration scale where inhibition reaches its midpoint.

SMILES strings stand for the structures.

Test [1] concerns porcine NKA. On the set-up: method as in PMID 33850021. The note with it: cited from earlier work.
The target in test [2] is porcine Na^+/K^+-ATPase (purified NKA from S. domesticus cerebral cortex). Kind of test: Na+/K+ ATPase (NKA) inhibitory activity assay (inorganic phosphate released from ATP, absorbance at 700 nm). The note with it: unadapted NKA from Sus domesticus; read-out: IC50 against porcine NKA. The test is classed as biochemical. The procedure: We tested the inhibitory capacity of the new compounds 1 and 2 and the known cardenolides 5–10 against porcine NKA. We used an in vitro assay to determine the IC50 of each compound and used ouabain as a reference.
We quantified the NKA inhibitory activity of the isolated cardenolides using purified NKA from S. domesticus cerebral cortex (Sigma-Aldrich-A7510-5UN, Steinheim, Germany), following protocols standardized by Petschenka et al.. Briefly, porcine NKA was diluted in di-water to a final assay concentration of 0.01 U/mL. The ATPase was exposed to exponentially decreasing concentrations from 10^−3 to 10^−8 M of ouabain (Sigma-Aldrich, O3125-1G, Steinheim, Germany) or the cardenolides 1–2 and 5–10. […] The NKA activity after cardenolide exposure was determined by quantification of inorganic phosphate released from enzymatically hydrolysed ATP. The […] levels were measured by photometric determination, reading the absorbance at 700 nm with a microplate reader (BMG Clariostar, BMG Labtech, Germany). The absorbance of each reaction was corrected with the respective background, and the inhibition curves were plotted in R studio [61] with log10-transformed cardenolide concentration versus percent of uninhibited control, with top and bottom asymptotes set to 1 and 0, respectively. […] IC50 values for each cardenolide and ouabain were also calculated from the inhibition curves using R studio. […]

With `C[C@@H]1C[C@H](O)[C@]2(O)O[C@@H]3C[C@@]4(C=O)[C@@H](CC[C@@H]5[C@@H]4CC[C@]4(C)[C@@H](C6=CC(=O)OC6)CC[C@]54O)C[C@H]3O[C@@H]2O1` [calotropin], the “log10 IC50 against porcine NKA” value in test [1] (log10 of IC50 in M) is on record as −6.56. The IC50 in test [1] (read-out: IC50 against porcine NKA) was 270 nM.

For `C[C@H]1O[C@@H](O[C@H]2CC[C@@]3(C=O)[C@@H](CC[C@@H]4[C@@H]3CC[C@]3(C)[C@@H](C5=CC(=O)OC5)CC[C@]43O)C2)[C@H](O)[C@H](O)[C@@H]1O` [Compound 9, gofruside], the concentration for half-maximal inhibition (IC50) in test [2] worked out at 96.5 nM.

For `CC1CC(O)C2(O)OC3CC4(C=O)C(CCC5C4CCC4(C)C(C6=CC(=O)OC6)C(O)CC54O)CC3OC2O1` (stereo not drawn) [Compound 10, 16α-hydroxycalotropin], in test [2], the half-maximal inhibitory concentration (IC50) was found to be 3670 nM.
